Reference: patent publication US20250144130A1, “POLYSACCHARIDE COMPOUND WITH A DEFINED MOLECULAR STRUCTURE THAT CAN ELIMINATE THE TOXIC SIDE EFFECTS OF CHEMOTHERAPY DRUGS” (priority 2023, published 2025)
Marks after values point to notes of the source that are not given here.

Experiments:
[1] = Histopathological examination of liver, spleen and thymus in orthotopic H22-bearing mice; format: in vivo, C57 mice; settings: radiotherapy 2 Gy/d + cisplatin 4 mg/kg ip q3d
Description: Liver cancer (H22) cells, labeled with Luc fluorescent marker at a concentration of 1×10^7 cells/mL, were initially inoculated into the peritoneal cavity of 8 male C57 mice. After the development of ascites, the ascitic fluid was aseptically extracted, washed with HBSS buffer, centrifuged to discard the supernatant, and stained with Trypan Blue, and cells in the ascitic fluid were counted under a microscope. The cell concentration was adjusted to […] with HBSS buffer and inoculated into the right hepatic region of 80 male C57 mice, at a volume of 10 μL per mouse, to prepare the orthotopic tumor-bearing mice. One week later, the liver tumor formation in mice was detected using a small animal in vivo imaging system. […] An additional 10 mice served as the normal control group. Except for the normal control group, all other animals underwent radiotherapy using an animal radiotherapy instrument. The animals were anesthetized, placed in homemade lead clothing, and the tumor tissue was exposed for radiation treatment at an intensity of 2 Gy/day for 5 consecutive days. The normal control group and the model control group were administered pure water by oral gavage. […] After the last dose, blood was collected from the orbital plexus to test blood WBC, RBC, liver and kidney function indicators (ALT, AST, BUN, CRE), and CD3^+/CD4^+, CD3^+/CD8^+ ratios. […]

[2] = Mortality, body weight and organ coefficients in orthotopic H22-bearing mice; settings: radiotherapy 2 Gy/d + cisplatin 4 mg/kg ip q3d
Description: Liver cancer (H22) cells, labeled with Luc fluorescent marker at a concentration of 1×10^7 cells/mL, were initially inoculated into the peritoneal cavity of 8 male C57 mice. After the development of ascites, the ascitic fluid was aseptically extracted, washed with HBSS buffer, centrifuged to discard the supernatant, and stained with Trypan Blue, and cells in the ascitic fluid were counted under a microscope. The cell concentration was adjusted to […] with HBSS buffer and inoculated into the right hepatic region of 80 male C57 mice, at a volume of 10 μL per mouse, to prepare the orthotopic tumor-bearing mice. One week later, the liver tumor formation in mice was detected using a small animal in vivo imaging system. […] An additional 10 mice served as the normal control group. Except for the normal control group, all other animals underwent radiotherapy using an animal radiotherapy instrument. The animals were anesthetized, placed in homemade lead clothing, and the tumor tissue was exposed for radiation treatment at an intensity of 2 Gy/day for 5 consecutive days. The normal control group and the model control group were administered pure water by oral gavage. […] After the last dose, blood was collected from the orbital plexus to test blood WBC, RBC, liver and kidney function indicators (ALT, AST, BUN, CRE), and CD3^+/CD4^+, CD3^+/CD8^+ ratios. The spleen, thymus, and tumors were weighed to calculate organ coefficients, and the liver, spleen, and thymus underwent histopathological examination.
Animal survival and general condition: Weight was recorded weekly, along with any deaths among the animals.
Immune organs: The thymus, spleen, tumor, and liver were weighed, and organ coefficients were calculated as follows: organ coefficient (%)=organ weight/fasting body weight×100%.

[3] = tested on: lymphocyte subtypes CD3^+/CD4^+ and CD3^+/CD8^+; assay: Blood CD3+/CD4+ and CD3+/CD8+ ratios by flow cytometry in orthotopic H22-bearing mice; format: in vivo, C57 mice; settings: radiotherapy 2 Gy/d + cisplatin 4 mg/kg ip q3d, after the last dose, Mean ± SEM
Description: CD4^+ and CD8^+ content measurement: After the last dose, lymphocyte subtypes CD3^+/CD4^+ and CD3^+/CD8^+ in the blood were measured using flow cytometry.

[4] = Mortality, body weight, spleen and thymus indices in LLC-bearing mice; format: in vivo, C57 mice; settings: cisplatin 4 mg/kg ip q3d
Description: Healthy LLC cells were inoculated subcutaneously into the left shoulder of 5 healthy male C57 mice. Once tumors reached a volume of 2,000-3,000 mm^3, they were harvested and homogenized to prepare a homogenate suspension. This suspension was then injected subcutaneously into the axilla of 60 healthy male C57 mice to establish a solid tumor model. Once all mouse tumors averaged a volume of about 150 mm^3, mice were randomized into groups based on tumor volume and were administered the respective drugs or drug solvents via oral gavage or intraperitoneal injection for 19 consecutive days. Longest and shortest diameters of tumors were measured every three days to calculate tumor volume, and mouse weights were recorded every three days. At the end of the experiment, tumors, spleens, and thymuses were harvested and weighed to calculate tumor, spleen, and thymus indices.
(§1) Spleen and thymus organ coefficients: After the last dose, spleen, thymus, and tumor weights are measured, and organ coefficients are calculated.
(§2) Immune organ index (mg/g)=(organ mass/body weight)×1000.

[5] = tested on: LLC-bearing mice; assay: Antitumor effect of GLP-3 combined with chemotherapy on LLC-bearing mice (tumor volume, inhibition rates, tumor index); format: in vivo, C57 mice; settings: cisplatin 4 mg/kg ip q3d
Description: Healthy LLC cells were inoculated subcutaneously into the left shoulder of 5 healthy male C57 mice. […] This suspension was then injected subcutaneously into the axilla of 60 healthy male C57 mice to establish a solid tumor model. […] Longest and shortest diameters of tumors were measured every three days to calculate tumor volume, and mouse weights were recorded every three days. At the end of the experiment, tumors, spleens, and thymuses were harvested and weighed to calculate tumor, spleen, and thymus indices. […] [table] […] Where TRTV is the relative tumor volume in the experimental group, and CRTV is the relative tumor volume in the model control group. Relative tumor volume (RTV)=Vt/V0, where Vt is the tumor volume on day t of dosing, and V0 is the tumor volume at the time of grouping. Evaluation criteria: […] Where T represents the average tumor weight in the treatment group, and C represents the average tumor weight in the model control group. Evaluation criteria: […] Tumor index (%)=(tumor weight/body weight)×100%.

[6] = Mortality, body weight, spleen and thymus indices in H22-bearing mice; format: in vivo, C57 mice; settings: sc H22 mice, cisplatin 3 mg/kg ip q3d
Description: A homogenate suspension of H22 hepatoma solid tumors was injected subcutaneously under the axilla of 50 healthy male C57 mice to create a solid tumor model. Once all mouse tumors averaged a volume of about 200 mm^3, mice were randomized into groups based on tumor volume and were administered the respective drugs or drug solvents via oral gavage or intraperitoneal injection for 22 consecutive days. Longest and shortest diameters of tumors were measured every three days to calculate tumor volume, and mouse weights were recorded every three days. At the end of the experiment, tumors, spleens, and thymuses were harvested and weighed to calculate tumor, spleen, and thymus indices.
as §1, §2

[7] = tested on: H22-bearing mice; assay: Antitumor effect of GLP-3 combined with chemotherapy on H22-bearing mice (tumor volume, inhibition rates, tumor index); format: in vivo, C57 mice; settings: sc H22 mice, cisplatin 3 mg/kg ip q3d
Description: Longest and shortest diameters of tumors were measured every three days to calculate tumor volume, and mouse weights were recorded every three days. At the end of the experiment, tumors, spleens, and thymuses were harvested and weighed to calculate tumor, spleen, and thymus indices. […] [table] […] Where TRTV is the relative tumor volume in the experimental group, and CRTV is the relative tumor volume in the model control group. Relative tumor volume (RTV)=Vt/V0, where Vt is the tumor volume on day t of dosing, and V0 is the tumor volume at the time of grouping. Evaluation criteria: […] Where T represents the average tumor weight in the treatment group, and C represents the average tumor weight in the model control group. Evaluation criteria: […] Tumor index (%)=(tumor weight/body weight)×100%.

[8] = tested on: orthotopic H22-bearing mice; assay: Tumor by small animal in vivo imaging, GLP-3 combined with radiotherapy, orthotopic H22-bearing mice; design: species or system C57 mice; settings: radiotherapy 2 Gy/d + cisplatin 4 mg/kg ip q3d
Description: This study used the proposed clinical dose as a basis for the experiment. The radiotherapy intensity for this study was designed to be 2 Gy per day. [table] Tumor volume measurement: Tumor volume changes were measured weekly using small animal in vivo imaging technology.

[9] = after the last dose, Mean ± SEM

With N.N.[Cl][Pt][Cl] [Cisplatin] the “Histopathology of liver, spleen and thymus” value [1] was “extensive H22 cell infiltration and necrosis were observed along with increased extramedullary hematopoiesis in the spleen and a decreased number of white pulp cells, with a reduction in thymic lymphocyte counts”, the Mortality rate ([2]; 14 days) was 60% and the Number of deaths ([2]; 14 days) was 6. The “Number of surviving animals” value ([2]; 14 days) was 4, the Weight ([2]; W0, Mean ± SEM) was 17.1 ± 0.4^++ g and the Weight ([2]; W1, Mean ± SEM) was 13.6 ± 0.9**^ g. For the same compound, the Weight ([2]; W2, Mean ± SEM) was 14.6 ± 1.0 g, the Liver coefficient [2, 9] was 7.962 ± 0.914 % and the Spleen coefficient [2, 9] was 0.424 ± 0.140 %. For the same compound, the Thymus coefficient [2, 9] was 0.039 ± 0.017%, the “CD3^+/CD4^+” value [3] was 23.05 ± 12.70 and the “CD3^+/CD8^+” value [3] was 126.56 ± 67.07. It also gave a Mortality rate ([4]; 19 days) of 0.0%, a Number of deaths ([4]; 19 days) of 0 and a Survival time ([4]; 19 days) of 19 ± 0 days. The Weight ([4]; D0) was 21.5 ± 1.3 g, the Weight ([4]; D3) was 20.9 ± 1.3^ g and the Weight ([4]; D6) was 20.4 ± 1.9^+ g. The Weight ([4]; D9) was 18.3 ± 2.6^+ g, the Weight ([4]; D12) was 18.6 ± 2.8^+ g and the Weight ([4]; D15) was 17.7 ± 2.7^+ g. The Weight ([4]; D19) was 16.8 ± 2.8^+ g, the Spleen index ([4]; after the last dose) was 2.84 ± 0.77^+ mg/g and the Tumor volume ([5]; D0) was 137.9 ± 50^ mm^3. The “Relative tumor growth inhibition rate (compared to model control group)” value (shortened to “Relative tumor growth inhibition rate”) ([5]; D3) was 4.3%, the Tumor volume ([5]; D3) was 300.1 ± 102.7 mm^3 and the “Relative tumor growth inhibition rate” value ([5]; D6) was 30.0%. For the same compound, the Tumor volume ([5]; D6) was 486.6 ± 188.9 mm^3, the “Relative tumor growth inhibition rate” value ([5]; D9) was 54.6^+ % and the Tumor volume ([5]; D9) was 771.3 ± 256^+ mm^3. For the same compound, the “Relative tumor growth inhibition rate” value ([5]; D9, listed as cisplatin) was 54.6%, the “Relative tumor growth inhibition rate” value ([5]; D12) was 63.8^+ % and the Tumor volume ([5]; D12) was 1173.9 ± 488.8^+ mm^3. For the same compound, the “Relative tumor growth inhibition rate” value ([5]; D12, listed as cisplatin) was 63.8%, the “Relative tumor growth inhibition rate” value ([5]; D15) was 77.3^+ % and the Tumor volume ([5]; D15) was 1409.5 ± 820.5^+ mm^3. For the same compound, the “Relative tumor growth inhibition rate” value ([5]; D15, listed as cisplatin) was 77.3%, the “Relative tumor growth inhibition rate” value ([5]; D19) was 79.5^+ % and the Tumor volume ([5]; D19) was 1771.9 ± 1091.6^+ mm^3. For the same compound, the “Relative tumor growth inhibition rate” value ([5]; D19, listed as cisplatin) was 79.5%, the Tumor index ([5]; after the last dose) was 9.09 ± 4.19^+ % and the “Tumor growth inhibition rate vs. the model control group” value ([5]; by average tumor weight) was 74.4%. The Mortality rate ([6]; 22 days) was 0.0%, the Number of deaths ([6]; 22 days) was 0 and the Survival time ([6]; 22 days) was 22 ± 0 days. The Weight ([6]; D0) was 18.9 ± 0.8^+ g, the Weight ([6]; D3) was 19.9 ± 0.7 g and the Weight ([6]; D6) was 19.5 ± 0.6^+ g. The Weight ([6]; D9) was 19.6 ± 0.8 g, the Weight ([6]; D12) was 19.5 ± 0.8^+ g and the Weight ([6]; D15) was 19.2 ± 0.7^+ g. The Weight ([6]; D18) was 18.5 ± 0.9^+ g, the Spleen index ([6]; after the last dose) was 3.4 ± 0.3^+ mg/g and the Thymus index ([6]; after the last dose) was 0.6 ± 0.1 mg/g. For the same compound, the Tumor volume ([7]; D0) was 188.2 ± 48.7 mm^3, the “Relative tumor growth inhibition rate” value ([7]; D3) was 11.7% and the Tumor volume ([7]; D3) was 338.6 ± 69.1 mm^3. For the same compound, the “Relative tumor growth inhibition rate” value ([7]; D6) was 19.5%, the Tumor volume ([7]; D6) was 356.9 ± 77.9 mm^3 and the “Relative tumor growth inhibition rate” value ([7]; D9) was 53.1^+ %. The Tumor volume ([7]; D9) was 598.5 ± 219.2^+ mm^3, the “Relative tumor growth inhibition rate” value ([7]; D9, listed as cisplatin) was 53.1% and the “Relative tumor growth inhibition rate” value ([7]; D12) was 64.4^+ %. The “Relative tumor growth inhibition rate” value ([7]; D12, listed as cisplatin) was 64.4%, the “Relative tumor growth inhibition rate” value ([7]; D15) was 73.1^+ % and the Tumor volume ([7]; D15) was 900.4 ± 376.4^+ mm^3. The “Relative tumor growth inhibition rate” value ([7]; D15, listed as cisplatin) was 73.1%, the “Relative tumor growth inhibition rate” value ([7]; D18) was 71.6^+ % and the Tumor volume ([7]; D18) was 1098.3 ± 397^+ mm^3. The “Relative tumor growth inhibition rate” value ([7]; D18, listed as cisplatin) was 71.6%, the “Relative tumor growth inhibition rate” value ([7]; D22) was 75.0^+ % and the Tumor volume ([7]; D22) was 1526.5 ± 535.7^+ mm^3. For the same compound, the “Relative tumor growth inhibition rate” value ([7]; D22, listed as cisplatin) was 75.0%, the Tumor index ([7]; after the last dose) was 6.6 ± 2.2^+ % and the “Tumor growth inhibition rate vs. the model control group” value ([7]; by average tumor weight) was 75.7%. For the same compound, the Tumor ([8]; W 0, Mean ± SEM) was 766250 ± 515323 and the Tumor ([8]; W 1, Mean ± SEM) was 5188000 ± 2224171.
